Reference: ChEMBL document CHEMBL3244274, “Antiallergic 9-oxo-11-hydroxy-5H,9H-[2]benzopyrano[4,3-g][1]benzopyrans” (J Med Chem, 1978)
In brackets after ≈: the same amount, converted by molar mass.

Experiments:
Rattus norvegicus [1] = experiment: Antiallergic activity in adrenalectomized Sprague-Dawley rat assessed as inhibition of egg albumin-induced passive cutaneous anaphylaxis reaction at 10 mg/kg, iv after 30 mins by Evans blue staining; format: functional; settings: 0.5 h
Stomach [2] = experiment: Antiallergic activity in rat stomach strips assessed as inhibition of […]-induced anaphylaxis; format: functional, tissue-based
Rattus norvegicus [3] = experiment: Toxicity in adrenalectomized Sprague-Dawley rat at 10 mg/kg, iv; format: organism-based; parameters: dose 10 mg/kg, route intravenous; settings: in vivo
Stomach [4] = experiment: Antiallergic activity in rat stomach strips assessed as inhibition of PGE2-induced anaphylaxis; format: functional, tissue-based
Stomach [5] = experiment: Antiallergic activity in rat stomach strips assessed as inhibition of […]-induced anaphylaxis at 100 ug/ml; format: functional
Stomach [6] = experiment: Antiallergic activity in rat stomach strips assessed as inhibition of PGE2-induced anaphylaxis at 25 ug/ml; format: functional
[7] = Antiallergic activity in guinea pig lung tissue assessed as inhibition of SRS-A production; format: functional, tissue-based, Cavia porcellus
Stomach [8] = experiment: Antiallergic activity in rat stomach strips assessed as inhibition of […]-induced anaphylaxis at 25 ug/ml; format: functional
[9] = Antiallergic activity in guinea pig lung tissue assessed as inhibition of SRS-A production at 1 ug/ml; format: functional; settings: Cavia porcellus
Rattus norvegicus [10] = experiment: Antiallergic activity in adrenalectomized Sprague-Dawley rat assessed as inhibition of egg albumin-induced passive cutaneous anaphylaxis reaction at 3 mg/kg, iv after 30 mins by Evans blue staining; format: functional; settings: 0.5 h
Ileum [11] = experiment: Antiallergic activity in guinea pig ileum strips assessed as inhibition of histamine-induced anaphylaxis; format: functional, tissue-based; settings: Cavia porcellus
Ileum [12] = experiment: Antiallergic activity in guinea pig ileum strips assessed as inhibition of serotonin-induced anaphylaxis; format: functional, tissue-based; settings: Cavia porcellus
Ileum [13] = experiment: Antiallergic activity in guinea pig ileum strips assessed as inhibition of bradykinin-induced anaphylaxis; format: functional, tissue-based; settings: Cavia porcellus
Rattus norvegicus [14] = experiment: Antiallergic activity in iv dosed adrenalectomized Sprague-Dawley rat assessed as inhibition of egg albumin-induced passive cutaneous anaphylaxis reaction after 30 mins by Evans blue staining; format: functional; settings: 0.5 h

Row | Compound | EC50 (Stomach [2]) | EC50 (Stomach [4]) | EC50 [7] | EC50 (Ileum [11]) | EC50 (Ileum [12]) | EC50 (Ileum [13]) | inhibition in vivo at 10 mg/kg (Rattus norvegicus [1]) | Activity (Rattus norvegicus [3]) | inhibition at 100 µg/mL (Stomach [5]) | inhibition at 25 µg/mL (Stomach [6]) | inhibition at 25 µg/mL (Stomach [8]) | inhibition at 1 µg/mL [9] | inhibition in vivo at 3 mg/kg (Rattus norvegicus [10]) | ED50 (Rattus norvegicus [14])
1 | CC1(C)Oc2cc3oc(=O)cc(O)c3cc2-c2ccc(F)cc21 | – | – | – | – | – | – | 60% | – | – | – | – | – | – | –
2 | CN1CCC(=C2c3ccccc3C=Cc3ccccc32)CC1 [CYPROHEPTADINE] | 65 µg/mL (≈ 226 µM) | 25 µg/mL (≈ 87 µM) | < 1 µg/mL | 0.04 µg/mL (≈ 0.139 µM) | 0.04 µg/mL (≈ 0.139 µM) | 2 µg/mL (≈ 6.96 µM) | 51% | Toxic | 74% | 54% | 33% | 62% | 30% | –
3 | CC1(C)Oc2cc3oc(C(=O)O)cc(=O)c3cc2-c2ccccc21.NCCO | 17 µg/mL | 70 µg/mL | 32 µg/mL | 150 µg/mL | 92 µg/mL | 145 µg/mL | 81% | – | – | – | – | – | – | 0.5 mg/kg
4 | O=C([O-])c1cc(=O)c2c(OCC(O)COc3cccc4oc(C(=O)[O-])cc(=O)c34)cccc2o1.[Na+].[Na+] [CROMOLYN SODIUM] | > 200 µg/mL | > 200 µg/mL | > 200 µg/mL | > 200 µg/mL | > 200 µg/mL | > 200 µg/mL | 80% | – | – | – | – | – | – | 2.9 mg/kg
5 | CC1(C)Oc2cc3oc(=O)cc([O-])c3cc2-c2ccc(OCCO)cc21.[Na+] | 16 µg/mL | 62 µg/mL | – | > 200 µg/mL | 11 µg/mL | 92 µg/mL | 87% | – | – | – | – | – | – | 0.3 mg/kg
6 | COc1cc2c(cc1Br)-c1cc3c([O-])cc(=O)oc3cc1OC2(C)C.[Na+] | 14 µg/mL | 55 µg/mL | 28 µg/mL | 39 µg/mL | 4.4 µg/mL | 51 µg/mL | 33% | – | – | – | – | – | – | –

Further lines, with some results ahead:

Row | EC50 (Stomach [2]) | EC50 (Stomach [4]) | EC50 [7] | EC50 (Ileum [11]) | EC50 (Ileum [12]) | EC50 (Ileum [13]) | Compound | inhibition in vivo at 10 mg/kg (Rattus norvegicus [1]) | Activity (Rattus norvegicus [3]) | inhibition at 100 µg/mL (Stomach [5]) | inhibition at 25 µg/mL (Stomach [6]) | inhibition at 25 µg/mL (Stomach [8]) | inhibition at 1 µg/mL [9] | inhibition in vivo at 3 mg/kg (Rattus norvegicus [10]) | ED50 (Rattus norvegicus [14])
7 | – | 45 µg/mL | – | 21 µg/mL | 10.2 µg/mL | 5.3 µg/mL | CC1(C)Oc2cc3oc(=O)cc([O-])c3cc2-c2ccc(Cl)cc21.[Na+] | 0% | – | – | – | – | – | – | –
8 | 23 µg/mL | 68 µg/mL | – | 13.2 µg/mL | 16 µg/mL | 9.2 µg/mL | COc1ccc2c(c1)C(C)(C)Oc1cc3oc(=O)cc([O-])c3cc1-2.[Na+] | 67% | – | – | – | – | – | – | 9 mg/kg
9 | – | – | – | 14.5 µg/mL | 4.8 µg/mL | 17.5 µg/mL | Cc1c2c(cc3oc(=O)cc([O-])c13)OC(C)(C)c1ccccc1-2.[Na+] | 0% | – | – | – | – | – | – | –
10 | 26 µg/mL | 56 µg/mL | – | 55 µg/mL | 10.2 µg/mL | 17 µg/mL | CC1(C)Oc2cc3oc(=O)cc([O-])c3cc2-c2ccccc21.[Na+] | 67% | – | – | – | – | – | – | –
11 | 47 µg/mL | 40 µg/mL | 13 µg/mL | > 200 µg/mL | 15 µg/mL | 84 µg/mL | CC1(C)Oc2cc3oc(=O)cc([O-])c3cc2-c2ccc(O)cc21.[Na+] | 61% | – | – | – | – | – | – | –
12 | – | 70 µg/mL | – | 7 µg/mL | 4.7 µg/mL | 14 µg/mL | CCCOc1ccc2c(c1)C(C)(C)Oc1cc3oc(=O)cc([O-])c3cc1-2.[Na+] | 0% | – | – | – | – | – | – | –
